From patent US9090593B2, “Bicyclic compounds as Pim inhibitors” (AMGEN INC., priority 2010, dated 2015)
Like-named read-outs stand apart in the source and are kept apart here.

Experiments:
[1] = molecular target: T1, Pim-2 stably transfected into the U2OS human osteogenic sarcoma line (Homo sapiens, UniProt Q9P1W9); experiment: Pim cell assay, phospho-BAD normalized against total BAD, U2OS stably transfected with Pim-2; assay type: cell-based; settings: read-out: Pim2_Cell_IC50; further: high dose 31.6 µM
T1 construct: expressed in transfected cells; host or cells: U2OS human osteogenic sarcoma line
T1 sequence (Q9P1W9 whole entry): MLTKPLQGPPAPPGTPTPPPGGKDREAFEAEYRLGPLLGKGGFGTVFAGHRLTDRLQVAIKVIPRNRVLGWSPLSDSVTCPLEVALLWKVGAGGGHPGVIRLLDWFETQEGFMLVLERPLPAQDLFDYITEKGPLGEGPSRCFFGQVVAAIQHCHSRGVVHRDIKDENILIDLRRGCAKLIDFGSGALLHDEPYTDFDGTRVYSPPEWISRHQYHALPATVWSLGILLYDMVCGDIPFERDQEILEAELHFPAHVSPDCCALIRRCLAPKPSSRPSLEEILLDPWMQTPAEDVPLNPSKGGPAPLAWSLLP
How it was run: (§1)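 Read-out is phospho-BAD relative to total BAD, by MSD electrochemiluminescence on lysates, expressed as % phosphoprotein = (2×phospho)/(phospho+total)×100. Engineered U2OS lines carrying stably transfected Pim-1 or Pim-2 received 10-point compound dilutions at 0.3% final DMSO after overnight culture at 37 °C; DMSO-only wells served as high control.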

[2] = molecular target: T2, full length recombinant Pim-3 protein (Homo sapiens, UniProt Q86V86); experiment: Pim-3 enzyme assay (HTRF, phosphorylation of biotinylated-BAD (S112) peptide); assay type: biochemical; settings: read-out: Pim3 IC50
T2 construct: by full length recombinant Pim-1, Pim-2, or Pim-3 protein; purchased Millipore (UK)
How it was run: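 HTRF read-out, streptavidin-APC plus Eu-labelled anti-phospho-BAD (S112) antibody, measures BAD peptide phosphorylation by full-length recombinant Pim-3. Buffer: 60 mM Hepes pH 7.0, 2 mM DTT, 0.05% BSA; EDTA (3 mM) stop. Percent of control per well, IC50 by 4-parameter logistic fit.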

[3] = molecular target: T3, full length recombinant Pim-2 protein (Homo sapiens, UniProt Q9P1W9); experiment: Pim-2 enzyme assay (HTRF, phosphorylation of biotinylated-BAD (S112) peptide); assay type: biochemical; settings: enzyme assay, Pim-2; read-out: Pim2_IC50
T3 construct: by full length recombinant Pim-1, Pim-2, or Pim-3 protein; hexahistidine tag followed by a thrombin cleavage site (N); made in house; host or cells: Sf9 (baculovirus) or E. coli (pET28)
T3 sequence (Q9P1W9 whole entry): as the sequence (Q9P1W9 whole entry) above
How it was run: (§2)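 Recombinant full-length Pim-1 or Pim-2 was incubated with biotinylated BAD (S112) peptide in pH 7.0 Hepes buffer with BSA and DTT. After an EDTA stop, phosphopeptide was quantified by time-resolved FRET between a europium antibody and streptavidin-APC, and IC50 values came from 4-parameter logistic curves.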

[4] = molecular target: T4, full length recombinant Pim-1 protein (Homo sapiens, UniProt P11309); experiment: Pim-1 enzyme assay (HTRF, phosphorylation of biotinylated-BAD (S112) peptide); assay type: biochemical; settings: enzyme assay, Pim-1; read-out: Pim_1_IC50
T4 construct: by full length recombinant Pim-1, Pim-2, or Pim-3 protein; hexahistidine tag followed by a thrombin cleavage site (N); made in house; host or cells: Sf9 (baculovirus) or E. coli (pET28)
T4 sequence (P11309 whole entry): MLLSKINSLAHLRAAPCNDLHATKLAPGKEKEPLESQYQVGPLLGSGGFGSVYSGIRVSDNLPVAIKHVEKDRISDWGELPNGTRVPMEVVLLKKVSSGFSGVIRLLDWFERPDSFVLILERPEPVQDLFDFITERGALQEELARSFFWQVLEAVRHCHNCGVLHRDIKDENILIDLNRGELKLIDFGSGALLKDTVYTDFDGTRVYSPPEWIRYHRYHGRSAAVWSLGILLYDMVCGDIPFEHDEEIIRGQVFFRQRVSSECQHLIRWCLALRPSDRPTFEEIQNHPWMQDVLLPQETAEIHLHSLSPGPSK
How it was run: as §2

[5] = molecular target: T5, Pim-1 stably transfected into the U2OS human osteogenic sarcoma line (Homo sapiens, UniProt P11309); experiment: Pim cell assay, phospho-BAD normalized against total BAD, U2OS stably transfected with Pim-1; assay type: cell-based; settings: read-out: Pim1_Cell_IC50
T5 construct: expressed in transfected cells; host or cells: U2OS human osteogenic sarcoma line
T5 sequence (P11309 whole entry): as above
How it was run: as §1

[6] = U2OS cells stably transfected with Pim-2, phospho-BAD, high dose […]
[7] = U2OS cells stably transfected with Pim-1, phospho-BAD, high dose […]

Row | IC50 [1] | IC50 [2] | IC50 [3] | IC50 [4] | IC50 [5] | IC50 [1, 6] | IC50 [5, 7] | Structure (SMILES)
1 | 11.3 µM | 12 nM | 271 nM | 32 nM | 1400 nM | – | – | CC(C)Oc1cncc(-c2ccc3[nH]cc(-c4ccnc(N)c4)c3c2)n1 [Example 28, 4-(5-(6-(1-methylethoxy)-2-pyrazinyl)-1H-indol-3-yl)-2-pyridinamine]
2 | 21.6 µM | 4 nM | 326 nM | 9 nM | 600 nM | – | – | COc1cncc(-c2ccc3[nH]nc(-c4cnc(N5CCC(N)CC5)s4)c3c2)c1 [Example 31, 1-(5-(5-(5-Methoxypyridin-3-yl)-1H-indazol-3-yl)thiazol-2-yl)piperidin-4-amine]
3 | > 31.6 µM | 69 nM | 243 nM | 26 nM | 1080 nM | – | – | Fc1cccc(F)c1-c1ccc2[nH]cc(-c3cncc(NC4CCCNC4)c3)c2n1 (stereo not shown) [Example 33, 5-(5-(2,6-difluorophenyl)-1H-pyrrolo[3,2-b]pyridin-3-yl)-N-(piperidin-3-yl)pyridin-3-amine]
4 | > 31.6 µM | 29 nM | 380 nM | 27 nM | 1010 nM | – | – | NC1CCN(c2cncc(-c3c[nH]c4ccc(-c5ccccc5F)nc34)c2)CC1 [Example 34, 1-(5-(5-(2-fluorophenyl)-1H-pyrrolo[3,2-b]pyridin-3-yl)pyridin-3-yl)piperidin-4-amine]
5 | – | 2 nM | 7 nM | 6 nM | – | 6.61 µM | 2060 nM | NC1CCN(c2cncc(-c3n[nH]c4ccc(-c5cc(C(=O)NCc6ccccc6)ccc5F)cc34)n2)CC1 [Example 36, 3-(3-(6-(4-amino-1-piperidinyl)-2-pyrazinyl)-1H-indazol-5-yl)-N-benzyl-4-fluorobenzamide]
6 | – | 5 nM | 19 nM | 13 nM | – | 3.53 µM | 573 nM | CC(C)(C)NC(=O)c1ccc(F)c(-c2ccc3[nH]nc(-c4cncc(N5CCC(N)CC5)n4)c3c2)c1 [Example 37, 3-(3-(6-(4-amino-1-piperidinyl)-2-pyrazinyl)-1H-indazol-5-yl)-N-tert-butyl-4-fluorobenzamide]
7 | – | 3 nM | 9 nM | 7 nM | – | 4.74 µM | 1210 nM | CCCCNC(=O)c1ccc(F)c(-c2ccc3[nH]nc(-c4cncc(N5CCC(N)CC5)n4)c3c2)c1 [Example 38, 3-(3-(6-(4-amino-1-piperidinyl)-2-pyrazinyl)-1H-indazol-5-yl)-N-butyl-4-fluorobenzamide]
8 | – | 4 nM | 10 nM | 7 nM | – | 6.63 µM | 1620 nM | CCCNC(=O)c1ccc(F)c(-c2ccc3[nH]nc(-c4cncc(N5CCC(N)CC5)n4)c3c2)c1 [Example 39, 3-(3-(6-(4-amino-1-piperidinyl)-2-pyrazinyl)-1H-indazol-5-yl)-4-fluoro-N-propylbenzamide]
9 | – | 16 nM | 13 nM | 24 nM | – | 7.06 µM | 2370 nM | CN(C)C(=O)c1ccc(F)c(-c2ccc3[nH]nc(-c4cncc(N5CCC(N)CC5)n4)c3c2)c1 [Example 40, 3-(3-(6-(4-amino-1-piperidinyl)-2-pyrazinyl)-1H-indazol-5-yl)-4-fluoro-N,N-dimethylbenzamide]
10 | – | 26 nM | 29 nM | 35 nM | – | 8.52 µM | 1400 nM | NC1CCN(c2cncc(-c3n[nH]c4ccc(-c5cc(C(=O)N6CCCCC6)ccc5F)cc34)n2)CC1 [Example 41, 1-(6-(5-(2-fluoro-5-(1-piperidinylcarbonyl)phenyl)-1H-indazol-3-yl)-2-pyrazinyl)-4-piperidinamine]
11 | – | 20 nM | 41 nM | 32 nM | – | 9.84 µM | 2800 nM | NC1CCN(c2cncc(-c3n[nH]c4ccc(-c5cc(C(=O)N6CCOCC6)ccc5F)cc34)n2)CC1 [Example 42, 1-(6-(5-(2-fluoro-5-(4-morpholinylcarbonyl)phenyl)-1H-indazol-3-yl)-2-pyrazinyl)-4-piperidinamine]
12 | – | 3 nM | 5 nM | 7 nM | – | 14.9 µM | 2520 nM | CCNC(=O)c1ccc(F)c(-c2ccc3[nH]nc(-c4cncc(N5CCC(N)CC5)n4)c3c2)c1 [Example 43, 3-(3-(6-(4-amino-1-piperidinyl)-2-pyrazinyl)-1H-indazol-5-yl)-N-ethyl-4-fluorobenzamide]
13 | – | 4 nM | 5 nM | 7 nM | – | 4.58 µM | 932 nM | CC(C)NC(=O)c1ccc(F)c(-c2ccc3[nH]nc(-c4cncc(N5CCC(N)CC5)n4)c3c2)c1 [Example 44, 3-(3-(6-(4-amino-1-piperidinyl)-2-pyrazinyl)-1H-indazol-5-yl)-4-fluoro-N-(1-methylethyl)benzamide]
14 | – | 8 nM | 23 nM | 12 nM | – | > 31.6 µM | 1560 nM | NC1CCN(c2cncc(-c3n[nH]c4ccc(-c5cc(C(=O)Nc6ccccc6)ccc5F)cc34)n2)CC1 [Example 45, 3-(3-(6-(4-amino-1-piperidinyl)-2-pyrazinyl)-1H-indazol-5-yl)-4-fluoro-N-phenylbenzamide]
15 | – | 22 nM | 49 nM | 20 nM | – | 7.03 µM | 959 nM | CCN(CC)C(=O)c1ccc(F)c(-c2ccc3[nH]nc(-c4cncc(N5CCC(N)CC5)n4)c3c2)c1 [Example 46, 3-(3-(6-(4-amino-1-piperidinyl)-2-pyrazinyl)-1H-indazol-5-yl)-N,N-diethyl-4-fluorobenzamide]
16 | – | 43 nM | 290 nM | 43 nM | – | > 31.6 µM | 1940 nM | CCN(CC)C(=O)c1cccc(-c2ccc3[nH]nc(-c4cncc(N5CCC(N)CC5)n4)c3c2)c1F [Example 47, 3-(3-(6-(4-amino-1-piperidinyl)-2-pyrazinyl)-1H-indazol-5-yl)-N,N-diethyl-2-fluorobenzamide]
17 | – | 27 nM | 285 nM | 44 nM | – | > 31.6 µM | 1110 nM | NC1CCN(c2cncc(-c3n[nH]c4ccc(-c5cc6ccccc6nc5Cl)cc34)n2)CC1 [Example 48, 1-(6-(5-(2-chloro-3-quinolinyl)-1H-indazol-3-yl)-2-pyrazinyl)-4-piperidinamine]
18 | – | 7 nM | 72 nM | 7 nM | – | > 31.6 µM | 1340 nM | Cn1ccc2cc(-c3ccc4[nH]nc(-c5cncc(N6CCC(N)CC6)n5)c4c3)ccc2c1=O [Example 49, 6-(3-(6-(4-amino-1-piperidinyl)-2-pyrazinyl)-1H-indazol-5-yl)-2-methyl-1(2H)-isoquinolinone]
19 | – | 21 nM | 470 nM | 24 nM | – | > 31.6 µM | 2270 nM | Cn1c(=O)cc(-c2ccc3[nH]nc(-c4cncc(N5CCC(N)CC5)n4)c3c2)c2ccccc21 [Example 50, 4-(3-(6-(4-amino-1-piperidinyl)-2-pyrazinyl)-1H-indazol-5-yl)-1-methyl-2(1H)-quinolinone]
20 | – | 9 nM | 87 nM | 13 nM | – | > 31.6 µM | 1460 nM | CN1C(=O)Cc2cc(-c3ccc4[nH]nc(-c5cncc(N6CCC(N)CC6)n5)c4c3)ccc21 [Example 51, 5-(3-(6-(4-amino-1-piperidinyl)-2-pyrazinyl)-1H-indazol-5-yl)-1-methyl-1,3-dihydro-2H-indol-2-one]
